Data: patent US10617735B2, “Methods and compositions for preserving retinal ganglion cells” (Massachusetts Eye and Ear Infirmary, priority 2010, dated 2020)

Legend:
Assay type in all cases: in vivo, mouse
[1] = test system: retinal ganglion cells (RGCs); experiment: TUNEL staining after ON injury; conditions: one day after ON injury; intravitreal 3-MA (33.3 mM); compared to non-treated mice
Excerpt: Two mouse models of RGC death were utilized: optic nerve (ON) injury and N-methyl-D-aspartate (NMDA) retinal excitotoxicity. ON injury leads to RGC death as a result of primary damage to the axons, with its ensuing disruption of retrograde axonal transport (Libby et al., (2005) PLOS GENET 1:17-26) and is used as an RGC death model. In the ON injury model, mice were anesthetized and subjected to severe crush injury at 1-2 mm distance from the eyeball for 15 seconds using cross-action forceps taking special care not to interfere with the blood supply (Levkovitch-Verbin, (2004) EYE 18:1066-1074). […] Soon after injury, each group received an intravitreal injection (2 μl) with the respective compounds. In the NMDA retinal excitotoxicity model, NMDA (2 μl of a 0.1M stock; Sigma-Aldrich) was injected intravitreously in combination with ZVAD, Nec-1, or ZVAD plus Nec-1 and mice were separated into the aforementioned 4 groups. The dose of these compounds was selected based on previous studies (Karl et al., (2008) PROC NATL ACAD SCI USA 105:19508-19513; Knoferle et al., (2010) PROC NATL ACAD SCI USA 107:6064-6069; Nakazawa et al., (2006) J NEUROSCI 26:12633-12641; Rosenbaum et al., (2010) J NEUROSCI RES 88:1569-1576).
Intravitreal injections were performed as follows. Briefly, the tip of a 33 gauge needle (Hamilton, Reno, Nev.) was carefully inserted through the sclera into the intravitreal space to reduce intraocular pressure. Then, the needle was extracted, loaded with compounds and tangentially reinserted through the sclera into the intravitreal space, inducing a self-sealing wound tunnel. After injection, the absence of choroidal bleeding was confirmed. At specified times after injury, mice were sacrificed with an overdose of sodium pentobarbital, and eyes were enucleated.

[2] = test system: retinal ganglion cells (RGCs); experiment: Brn3b immunohistochemistry (viable RGCs) after ON injury; conditions: seven days after ON injury; intravitreal 3-MA (33.3 mM); effect less than ZVAD plus Nec-1
Excerpt: Two mouse models of RGC death were utilized: optic nerve (ON) injury and N-methyl-D-aspartate (NMDA) retinal excitotoxicity. ON injury leads to RGC death as a result of primary damage to the axons, with its ensuing disruption of retrograde axonal transport (Libby et al., (2005) PLOS GENET 1:17-26) and is used as an RGC death model. In the ON injury model, mice were anesthetized and subjected to severe crush injury at 1-2 mm distance from the eyeball for 15 seconds using cross-action forceps taking special care not to interfere with the blood supply (Levkovitch-Verbin, (2004) EYE 18:1066-1074). Injured mice were randomly divided into 4 groups for treatment: vehicle group (0.5% DMSO and 0.8% cyclodextrin in PBS, n=6), ZVAD group (300 n=6), Nec-1 group (4 mM, n=6), and ZVAD plus Nec-1 group (n=6). Soon after injury, each group received an intravitreal injection (2 μl) with the respective compounds. In the NMDA retinal excitotoxicity model, NMDA (2 μl of a 0.1M stock; Sigma-Aldrich) was injected intravitreously in combination with ZVAD, Nec-1, or ZVAD plus Nec-1 and mice were separated into the aforementioned 4 groups. […]

[3] = test system: retinal ganglion cells (RGCs); experiment: IPL thickness and GCL with IPL thickness after ON injury (immunohistochemistry, SD-OCT); conditions: seven days after ON injury; intravitreal 3-MA (33.3 mM); effect less than ZVAD plus Nec-1
Protocol: An anti-TNF-α neutralizing antibody (0.1 mg/ml) or a control antibody was injected into the vitreous of mice that underwent ON injury. One week following injection, the number of RGCs were measured. In addition, inner plexiform layer (IPL) thickness (a location of RGC axons) was also assessed. Specifically, eyes were enucleated and RGC loss was quantified from histological sections of mouse retina. Only transverse sections involving the optic disc were used for analysis and the fields corresponding to approximately 400 μm of both sides of retina extending from the ON head (2 points/section×3 sections per eye, n=6) were examined with an optical microscope (×40 objectives). IPL thickness was measured with OpenLab software (Open Lab, Florence, Italy) (2 points/section×3 sections per eye, n=6). The ratio of IPL thickness was calculated as a percentage of IPL thickness in the normal mouse eyes (n=6).
Inner plexiform layer (IPL) thickness and ganglion cell layer (GCL) with IPL thickness (location of RGC cell bodies and axons) were measured using immunohistochemistry and a Spectral Domain Optical Coherence Tomography (SD-OCT) system (Bioptigen Inc., Durham, N.C.). […] The thickness of GCL+IPL was assessed at 500 μm, 400 μm, 300 μm distance from the ON head (nasally and temporally) as well as at 200 μm, 400 μm above and below the ON head.

ROS = experiment: Protein carbonyl contents in retina after ON injury (ELISA); conditions: one day after ON injury; intravitreal 3-MA; compared with untreated control
Protocol: It has been reported that RIP kinases control ROS generation during programmed necrosis (Cho et. al., (2009) CELL 137:1112-1123, Zhang et al., (2009) SCIENCE 325:332-336)). To investigate whether ROS play a roll in oxidative retinal damage after ON injury, protein level of carbonyl contents was analyzed using ELISA using the OxiSelect™ Protein Carbonyl ELISA Kit (Cell Biolabs, San Diego, Calif.).
To investigate the role of autophagy in RGC death after ON injury, we examined the effect of 3-methyladenine (3-MA) on RGCs death after ON injury. 3-MA inhibits autophagosome formation (Seglen and Gordon, (1982) PROC NATL ACAD SCI USA 79:1889-1892)). One day after ON injury, TUNEL assay was performed. […] In addition, the number of Brn3b positive cells and IPL thickness were also analyzed. […] To investigate whether ROS play a role in oxidative retinal damage after ON injury, protein level of carbonyl contents was analyzed using an ELISA kit (Cell Biolabs, San Diego, Calif.) according to the manufacturer's instructions. One day after ON injury, carbonyl contents decreased in the 3-MA treated group compared with untreated control (FIG. 10F).

## Cn1cnc(N)c2ncnc1-2 [3-MA, 3-methyladenine]
[1]
  number of TUNEL positive cells: small but statistically significant decline
[2]
  reduction of Brn3b positive cells: significantly prevented the reduction
[3]
  reduction of IPL thickness ratio: significantly prevented the reduction
ROS
  carbonyl contents (protein level, ELISA): decreased
